Consider 7 molecules from PubChem BioAssay (NCI).

Test systems include 786-0 renal; ACHN renal; EKVX NSCLC; HCT-15 colon; HOP-62 NSCLC; HOP-92 NSCLC; MDA-MB-231 breast; NCI-H226 lung; OVCAR-3 ovarian; RPMI-8226 leukemia; RXF 393 renal; SF-268 CNS; SF-295 CNS; SK-MEL-5 melanoma; SNB-19 CNS; SR leukemia; SW-620 colon; UACC-257 melanoma; UACC-62 melanoma.
Holding throughout (experiment): inhibition of tumour cell growth, NCI panel, 48 h

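Assay format: 96-well plates, 48-hour exposure. TGI: total growth inhibition.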

Take `CCc1ccc(/C=C/C(=O)C2CN(CC)CCC2(O)/C=C/c2ccc(CC)cc2)cc1` (stereo not drawn): the TGI in the test with 786-0 renal came to 3.22 µM; with ACHN renal, 3.68 µM; in the test with EKVX NSCLC, 17.4 µM; in the test with HCT-15 colon, 8.27 µM; in the test on HOP-62 NSCLC, 3.54 µM; in the test with HOP-92 NSCLC, 5.33 µM. Moreover, the TGI in the test on MDA-MB-231 breast was 5.07 µM; with NCI-H226 lung it was 20.1 µM; in the test on OVCAR-3 ovarian, 3.3 µM; in the test on RPMI-8226 leukemia it was 5.24 µM; in the test on RXF 393 renal it was 8.43 µM; in the test on SF-268 CNS, 12 µM. Further, the TGI in the test with SF-295 CNS came to 8.9 µM; in the test with SK-MEL-5 melanoma, 11.2 µM; in the test on SNB-19 CNS it was 23.3 µM; with SR leukemia, 3.99 µM; in the test on SW-620 colon it was 4.4 µM; with UACC-257 melanoma it was 19.3 µM. Besides, the TGI with UACC-62 melanoma is 16.2 µM.
Regarding `CCCCCC(=Nc1n[nH]nc1C(N)=O)OCC`, the TGI in the test with 786-0 renal, in the test on ACHN renal, with EKVX NSCLC, in the test with HCT-15 colon, in the test on HOP-62 NSCLC and in the test on HOP-92 NSCLC was over 100 µM each time. Besides, the TGI in the test with MDA-MB-231 breast, in the test on NCI-H226 lung, with OVCAR-3 ovarian, with RPMI-8226 leukemia, with RXF 393 renal and in the test with SF-268 CNS was over 100 µM each time. In addition, the TGI in the test on SF-295 CNS, in the test with SK-MEL-5 melanoma, in the test with SNB-19 CNS, in the test with SR leukemia, with SW-620 colon and with UACC-257 melanoma was over 100 µM each time. In addition, in the test on UACC-62 melanoma, the TGI is over 100 µM.
With `NS(=O)(=O)c1nnc(NS(=O)(=O)c2ccc(Cl)cc2)s1`, the TGI in the test with 786-0 renal, with ACHN renal, with EKVX NSCLC, with HCT-15 colon, with HOP-62 NSCLC and in the test on HOP-92 NSCLC was over 100 µM each time. In addition, the TGI in the test on MDA-MB-231 breast, in the test on NCI-H226 lung, with OVCAR-3 ovarian, in the test with RPMI-8226 leukemia, in the test with RXF 393 renal and in the test on SF-268 CNS was over 100 µM in each case. In addition, the TGI in the test with SF-295 CNS, in the test on SK-MEL-5 melanoma, with SNB-19 CNS, in the test on SR leukemia, in the test with SW-620 colon and in the test on UACC-257 melanoma was over 100 µM each time. In the test with UACC-62 melanoma, this molecule registered a TGI of over 100 µM.
Consider `COc1ccc2c(c1)/C(=C\c1c(Cl)n(-c3ccccc3)c3ccccc13)C(=O)N2`, for which the TGI in the test with 786-0 renal is 29.2 µM; with ACHN renal, 45.1 µM; with EKVX NSCLC it was 57.5 µM; in the test with HCT-15 colon, 25.3 µM; with HOP-62 NSCLC, 33.6 µM; in the test with HOP-92 NSCLC, 17.6 µM. Besides, the TGI in the test with MDA-MB-231 breast was over 100 µM; in the test with NCI-H226 lung, 24.5 µM; with OVCAR-3 ovarian it was 6.78 µM; in the test with RPMI-8226 leukemia, 45.4 µM; in the test on RXF 393 renal, 11.2 µM; in the test with SF-268 CNS, 20.3 µM. Further, the TGI is 25.9 µM in the test with SF-295 CNS; 21.3 µM with SK-MEL-5 melanoma; 22.1 µM with SNB-19 CNS; over 100 µM in the test on SR leukemia; over 100 µM in the test with SW-620 colon; 50.8 µM in the test with UACC-257 melanoma. The TGI in the test with UACC-62 melanoma came to 32.6 µM.
On to `CCOC(=O)C(NC(=O)c1ccccc1)(Nc1ccc(S(=O)(=O)Nc2cc(C)nc(C)n2)cc1)C(F)(F)F` (stereo not drawn), for which the TGI with 786-0 renal, in the test with ACHN renal, with EKVX NSCLC, in the test with HCT-15 colon, in the test on HOP-62 NSCLC and in the test on HOP-92 NSCLC was over 100 µM each time. The TGI in the test on MDA-MB-231 breast, in the test on NCI-H226 lung, with OVCAR-3 ovarian, in the test with RPMI-8226 leukemia, in the test with RXF 393 renal and in the test with SF-268 CNS was over 100 µM in each case. The TGI in the test on SF-295 CNS, in the test with SK-MEL-5 melanoma, in the test on SNB-19 CNS, in the test on SR leukemia, in the test on SW-620 colon and with UACC-257 melanoma was over 100 µM in each case. Besides, the TGI with UACC-62 melanoma was over 100 µM.
For `COC(=O)N/N=C(/c1nc2ccc([N+](=O)[O-])cc2[nH]c1=O)C(O)c1ccc(OC)c(OC)c1` (stereo not drawn), the TGI was over 100 µM in the test with 786-0 renal; over 100 µM with ACHN renal; over 100 µM in the test on EKVX NSCLC; over 78.4 µM in the test with HCT-15 colon; over 100 µM in the test on HOP-62 NSCLC; over 100 µM in the test on HOP-92 NSCLC. Further, the TGI in the test with MDA-MB-231 breast was over 100 µM; with NCI-H226 lung it was over 100 µM; in the test on OVCAR-3 ovarian, over 100 µM; in the test on RPMI-8226 leukemia, over 74.5 µM; in the test with RXF 393 renal, over 100 µM; in the test with SF-268 CNS, over 100 µM. Moreover, the TGI in the test with SF-295 CNS is over 100 µM; in the test with SK-MEL-5 melanoma, over 78.7 µM; in the test with SNB-19 CNS, over 100 µM; with SR leukemia it was 39 µM; with SW-620 colon, over 100 µM; in the test on UACC-257 melanoma it was over 100 µM. This molecule also had a TGI in the test with UACC-62 melanoma of over 100 µM.
Take `CCCCc1ccc(Nc2nc(Cl)c3ncn(C4CC(Oc5ccc(C)cc5)C(COc5ccc(C)cc5)O4)c3n2)cc1` (stereo not drawn): the TGI in the test on 786-0 renal, in the test with ACHN renal, in the test on EKVX NSCLC, in the test with HCT-15 colon, in the test with HOP-62 NSCLC and with HOP-92 NSCLC was over 100 µM in each case. Besides, the TGI in the test with MDA-MB-231 breast, with NCI-H226 lung, in the test on OVCAR-3 ovarian, in the test on RPMI-8226 leukemia, in the test on RXF 393 renal and in the test with SF-268 CNS was over 100 µM throughout. In addition, the TGI in the test on SF-295 CNS, in the test with SK-MEL-5 melanoma, in the test on SNB-19 CNS, in the test with SR leukemia, in the test on SW-620 colon and in the test on UACC-257 melanoma was over 100 µM each time. Further, the TGI in the test with UACC-62 melanoma was over 100 µM.
